The record followed here is ChEMBL document CHEMBL1135889, “Novel 4-anilinoquinazolines with C-7 basic side chains: design and structure activity relationship of a series of potent, orally active, VEGF receptor tyrosine kinase inhibitors” (J Med Chem, 2002).

Series [1] has as its target Receptor tyrosine-protein kinase erbB-2 (Homo sapiens, UniProt P04626). The experiment in a line: Inhibition of ERBB2 receptor kinase at ATP concentration <Km.
A short description of series [2]: Plasma levels following administration of 50 mg/Kg perorally and concentration of compound in plasma 24 hr after administration. The following applies: po, read-out: Plasma level. It counts as ADME, cell-free.
Series [3] is described as follows: Pharmacokinetic parameters in dog, and clearance value reported after oral administration of 50 mg/Kg. It counts as ADME, organism-based, Canis lupus familiaris. The following applies: in vivo.
Series [4] in a line: Pharmacokinetic parameter bioavailability in dog was reported after oral administration of 30 mg/Kg measured on free base. The following applies: in vivo.
Series [5] in a line: Plasma levels following administration of 50 mg/Kg perorally and concentration in plasma 6 hr after administration. It counts as ADME, cell-free. Particulars: po, read-out: Plasma level.
A short description of series [6]: Bioavailability in rat after oral dose at 50 mg/kg free base. It counts as ADME, organism-based. The following applies: in vivo.
Series [7] can be described thus: solubility was determined using free base at pH 7.4. It counts as physicochemical. The following applies: buffer.
The target of series [8] is Serine/threonine-protein kinase AKT (Homo sapiens, UniProt P31751+Q9Y243+P31749). Put plainly: Inhibition of Protein kinase B (AKT) at ATP <Km. It counts as protein assay.
The nature of series [9]: Binding affinity to serum protein in rat. It counts as ADME, organism-based. The following applies: read-out: %Bound_Plasma (converted).
Series [10] is described as follows: Pharmacokinetic parameter half-life in rat was reported after intravenous administration of 5 mg/Kg measured on free base. The following applies: in vivo.
For series [11], the target named is Angiopoietin-1 receptor (Homo sapiens, UniProt Q02763). The experiment in a line: Inhibition of Tyrosine protein kinase TIE-2 at ATP <Km.
Series [12] addresses Dual specificity mitogen-activated protein kinase kinase; MEK1/2 (Homo sapiens, UniProt P36507+Q02750). Put plainly: Inhibition of Mitogen activated protein kinase (MEK) at ATP <Km. It counts as protein assay.
In series [13] the target is Insulin-like growth factor 1 receptor (Homo sapiens, UniProt P08069). The experiment in a line: Inhibition of Insulin-like growth factor I receptor at ATP <Km.
Series [14] concerns the target T1, 3-phosphoinositide-dependent protein kinase 1 (Homo sapiens, UniProt O15530).
T1 sequence (O15530 whole entry): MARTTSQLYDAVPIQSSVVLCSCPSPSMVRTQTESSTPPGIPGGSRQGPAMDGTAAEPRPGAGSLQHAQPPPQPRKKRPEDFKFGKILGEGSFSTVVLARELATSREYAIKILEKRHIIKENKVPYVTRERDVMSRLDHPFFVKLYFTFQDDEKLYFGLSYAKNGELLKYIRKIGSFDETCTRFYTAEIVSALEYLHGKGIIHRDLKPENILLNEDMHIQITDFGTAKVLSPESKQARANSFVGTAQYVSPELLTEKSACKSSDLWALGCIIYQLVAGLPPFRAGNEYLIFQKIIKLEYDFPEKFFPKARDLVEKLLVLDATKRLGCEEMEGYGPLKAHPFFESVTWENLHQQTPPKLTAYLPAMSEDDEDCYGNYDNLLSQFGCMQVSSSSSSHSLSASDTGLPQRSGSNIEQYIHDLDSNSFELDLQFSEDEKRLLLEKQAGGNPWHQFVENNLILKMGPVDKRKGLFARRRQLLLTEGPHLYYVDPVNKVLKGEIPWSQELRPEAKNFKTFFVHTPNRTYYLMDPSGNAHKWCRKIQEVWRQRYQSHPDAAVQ
Put plainly: Inhibition of receptor kinase activity against PDK (phospho-inositide dependent kinase) at ATP <Km.

Series [15] concerns the target Cyclin-dependent kinase 2 (Homo sapiens, UniProt P24941). Put plainly: Inhibition of Cyclin-dependent kinase 2 (CDK2) at ATP concentration <Km.
Series [16] in a line: Pharmacokinetic parameter half-life in dog was reported after intravenous administration of 5 mg/Kg measured on free base. The following applies: in vivo.
Series [17] is described as follows: pKa value at a pH of […]. It counts as physicochemical. The following applies: pH 7.4.
Series [18] can be described thus: Binding affinity of serum protein in mouse. Particulars: read-out: %Bound_Plasma (converted). It counts as ADME, organism-based.
Series [19] in a line: physchem. Particulars: octanol/water, pH 7.4.
In series [20] the test system is HUVEC. The experiment in a line: Inhibition of basal unstimulated growth of human endothelial cell. It counts as functional, cell-based.
Series [21] in a line: Plasma levels following administration of 100 mg/Kg perorally and concentration in plasma 24 hr after administration. The following applies: po, read-out: Plasma level. It counts as ADME, cell-free.
A short description of series [22]: solubility was determined using free base at pH 7. It counts as physicochemical. The following applies: buffer.
The nature of series [23]: physchem. Particulars: pH 7.4.
A short description of series [24]: Plasma levels following administration of 100 mg/Kg perorally and concentration in plasma 6 hr after administration. The following applies: po, read-out: Plasma level. It counts as ADME, cell-free.
The nature of series [25]: Pharmacokinetic parameter bioavailability in dog was reported after oral administration of 25 mg/Kg measured on free base. The following applies: in vivo.
Series [26] concerns Mus musculus. The experiment in a line: Inhibition of Calu-6 tumor xenografts implanted subcutaneously in athymic mice measured after 21 days of dosing of 100 mg/kg perorally. The following applies: Calu-6, 504 h, route oral. It counts as functional.
In series [27] the test system is Mus musculus. Put plainly: Inhibition of Established Calu-6 tumor xenografts implanted subcutaneously in athymic mice measured after 21 days of dosing of […] mg/kg perorally. It counts as functional. Particulars: Calu-6, 504 h, route oral.
In series [28] the test system is Mus musculus. The experiment in a line: Inhibition of Established Calu-6 tumor xenografts implanted subcutaneously in athymic mice measured after 21 days of dosing of 12.5 mg/kg perorally. It counts as functional. Particulars: Calu-6, 504 h, route oral.
A short description of series [29]: Pharmacokinetic parameter half-life in dog was reported after intravenous administration of 5 mg/Kg measured on free base. Particulars: in vivo. The source holds these as a separate data set.
Series [30] can be described thus: Pharmacokinetic parameter bioavailability in rat was reported after oral administration of 50 mg/Kg measured on free base. It counts as ADME, organism-based. Particulars: in vivo.
A short description of series [31]: pKa value at a pH of […].value ranges from […]-[…]. Particulars: pH 7.4. It counts as physicochemical.
The test system of series [32] is Mus musculus. The experiment in a line: Inhibition of Established Calu-6 tumor xenografts implanted subcutaneously in athymic mice measured after 21 days of dosing of 50 mg/kg perorally. The following applies: Calu-6, 504 h, route oral. It counts as functional.

Converted amounts (≈) assume the structure as drawn.

Chain of Angiopoietin-1 receptor (Q02763 whole entry): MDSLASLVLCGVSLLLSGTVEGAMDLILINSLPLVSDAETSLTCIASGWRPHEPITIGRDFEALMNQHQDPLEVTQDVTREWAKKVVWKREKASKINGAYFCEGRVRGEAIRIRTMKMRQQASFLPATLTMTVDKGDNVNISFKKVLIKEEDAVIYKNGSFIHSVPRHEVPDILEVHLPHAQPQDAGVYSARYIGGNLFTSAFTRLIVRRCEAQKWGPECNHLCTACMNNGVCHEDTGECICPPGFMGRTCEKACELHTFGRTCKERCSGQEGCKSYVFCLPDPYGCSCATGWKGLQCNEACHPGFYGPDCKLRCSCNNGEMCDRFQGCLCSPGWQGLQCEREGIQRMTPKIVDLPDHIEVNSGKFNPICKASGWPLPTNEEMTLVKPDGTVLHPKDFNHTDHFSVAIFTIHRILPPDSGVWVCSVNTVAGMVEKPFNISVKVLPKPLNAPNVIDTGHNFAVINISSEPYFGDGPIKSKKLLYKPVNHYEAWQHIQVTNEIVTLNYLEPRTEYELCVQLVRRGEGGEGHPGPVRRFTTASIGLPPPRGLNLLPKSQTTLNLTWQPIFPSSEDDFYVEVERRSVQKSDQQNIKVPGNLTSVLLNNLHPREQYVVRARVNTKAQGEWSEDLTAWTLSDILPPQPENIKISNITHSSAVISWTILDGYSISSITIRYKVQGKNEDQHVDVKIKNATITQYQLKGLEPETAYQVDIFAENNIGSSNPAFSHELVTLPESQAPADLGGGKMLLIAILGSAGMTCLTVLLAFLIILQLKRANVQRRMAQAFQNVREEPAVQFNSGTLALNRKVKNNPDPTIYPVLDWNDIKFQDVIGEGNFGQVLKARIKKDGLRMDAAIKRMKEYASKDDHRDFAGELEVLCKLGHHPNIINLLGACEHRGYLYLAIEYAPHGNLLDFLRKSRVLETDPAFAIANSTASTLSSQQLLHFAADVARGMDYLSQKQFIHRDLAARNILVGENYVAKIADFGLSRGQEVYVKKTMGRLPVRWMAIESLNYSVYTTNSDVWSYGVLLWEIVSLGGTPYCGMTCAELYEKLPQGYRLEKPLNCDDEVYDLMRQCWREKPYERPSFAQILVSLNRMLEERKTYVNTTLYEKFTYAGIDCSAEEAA
Chain of Receptor tyrosine-protein kinase erbB-2 (P04626 whole entry): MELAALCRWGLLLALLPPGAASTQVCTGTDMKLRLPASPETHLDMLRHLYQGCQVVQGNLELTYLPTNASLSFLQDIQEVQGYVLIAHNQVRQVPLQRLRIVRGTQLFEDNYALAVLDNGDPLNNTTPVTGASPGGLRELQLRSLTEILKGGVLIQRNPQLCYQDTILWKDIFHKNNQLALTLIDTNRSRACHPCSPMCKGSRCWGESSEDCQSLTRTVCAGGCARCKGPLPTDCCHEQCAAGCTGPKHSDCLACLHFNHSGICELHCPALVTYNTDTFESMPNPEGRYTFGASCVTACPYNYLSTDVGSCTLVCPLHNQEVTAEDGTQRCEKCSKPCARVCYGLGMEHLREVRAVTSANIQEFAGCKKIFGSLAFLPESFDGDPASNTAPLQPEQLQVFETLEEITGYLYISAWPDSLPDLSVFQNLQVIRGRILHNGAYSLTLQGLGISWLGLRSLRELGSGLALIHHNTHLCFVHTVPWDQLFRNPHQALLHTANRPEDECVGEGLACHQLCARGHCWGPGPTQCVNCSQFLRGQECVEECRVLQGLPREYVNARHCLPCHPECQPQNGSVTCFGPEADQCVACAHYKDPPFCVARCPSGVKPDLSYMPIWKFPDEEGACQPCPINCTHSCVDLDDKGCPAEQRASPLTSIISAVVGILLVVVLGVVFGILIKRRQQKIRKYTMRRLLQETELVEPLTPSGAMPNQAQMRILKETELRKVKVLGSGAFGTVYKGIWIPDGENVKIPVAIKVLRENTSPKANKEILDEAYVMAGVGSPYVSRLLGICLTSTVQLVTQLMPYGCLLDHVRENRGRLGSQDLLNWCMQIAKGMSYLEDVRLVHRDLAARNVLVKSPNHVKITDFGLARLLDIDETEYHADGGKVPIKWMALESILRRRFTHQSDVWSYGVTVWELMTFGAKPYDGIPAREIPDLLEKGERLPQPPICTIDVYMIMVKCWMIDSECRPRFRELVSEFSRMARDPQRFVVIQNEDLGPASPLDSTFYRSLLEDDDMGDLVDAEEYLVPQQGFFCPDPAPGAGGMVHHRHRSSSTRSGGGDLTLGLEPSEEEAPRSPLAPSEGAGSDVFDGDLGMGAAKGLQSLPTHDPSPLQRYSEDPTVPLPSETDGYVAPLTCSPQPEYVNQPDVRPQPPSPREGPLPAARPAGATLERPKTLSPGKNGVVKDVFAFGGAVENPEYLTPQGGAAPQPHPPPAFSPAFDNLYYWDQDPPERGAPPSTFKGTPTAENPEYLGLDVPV
Chain of Insulin-like growth factor 1 receptor (P08069 31-736 limits assumed): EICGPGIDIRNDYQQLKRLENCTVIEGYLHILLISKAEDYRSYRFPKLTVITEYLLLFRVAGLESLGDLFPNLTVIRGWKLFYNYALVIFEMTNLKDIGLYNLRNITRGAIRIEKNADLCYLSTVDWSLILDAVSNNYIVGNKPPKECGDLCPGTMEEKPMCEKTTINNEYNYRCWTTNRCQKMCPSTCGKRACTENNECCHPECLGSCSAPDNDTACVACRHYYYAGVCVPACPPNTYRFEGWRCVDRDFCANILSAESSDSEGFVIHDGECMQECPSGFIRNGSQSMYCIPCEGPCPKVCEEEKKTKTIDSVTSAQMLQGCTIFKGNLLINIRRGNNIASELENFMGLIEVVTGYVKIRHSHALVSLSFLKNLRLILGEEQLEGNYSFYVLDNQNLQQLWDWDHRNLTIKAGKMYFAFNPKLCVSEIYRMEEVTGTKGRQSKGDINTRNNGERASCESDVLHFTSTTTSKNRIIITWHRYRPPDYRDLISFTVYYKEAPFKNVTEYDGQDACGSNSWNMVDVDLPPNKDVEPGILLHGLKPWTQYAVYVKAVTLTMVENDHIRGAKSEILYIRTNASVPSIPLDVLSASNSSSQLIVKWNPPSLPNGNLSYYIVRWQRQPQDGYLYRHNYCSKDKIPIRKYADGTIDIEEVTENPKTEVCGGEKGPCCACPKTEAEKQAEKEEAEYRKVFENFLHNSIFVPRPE
Chain of Insulin-like growth factor 1 receptor (P08069 741-1367 limits assumed): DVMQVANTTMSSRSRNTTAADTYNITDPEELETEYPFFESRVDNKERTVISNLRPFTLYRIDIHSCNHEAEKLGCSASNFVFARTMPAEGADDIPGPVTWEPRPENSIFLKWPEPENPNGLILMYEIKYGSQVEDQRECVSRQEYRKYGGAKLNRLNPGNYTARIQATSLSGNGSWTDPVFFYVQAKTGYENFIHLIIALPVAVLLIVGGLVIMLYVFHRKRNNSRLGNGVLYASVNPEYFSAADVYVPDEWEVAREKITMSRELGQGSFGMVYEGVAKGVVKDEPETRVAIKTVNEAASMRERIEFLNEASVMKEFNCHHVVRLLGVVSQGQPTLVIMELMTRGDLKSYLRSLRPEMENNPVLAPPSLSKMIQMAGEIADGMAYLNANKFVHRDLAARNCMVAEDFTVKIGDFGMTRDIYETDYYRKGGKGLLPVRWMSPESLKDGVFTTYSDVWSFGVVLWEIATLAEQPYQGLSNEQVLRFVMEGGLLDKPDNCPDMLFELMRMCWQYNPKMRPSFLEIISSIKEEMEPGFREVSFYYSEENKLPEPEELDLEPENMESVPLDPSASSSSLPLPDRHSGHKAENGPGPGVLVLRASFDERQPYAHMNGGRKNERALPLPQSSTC

A word on the IC50: it is the point on the concentration scale where inhibition reaches its midpoint. Low values mean greater potency, high ones weaker potency. As a reminder, the CL/F is clearance divided by bioavailability, as obtained after extravascular dosing. As usually defined, the bioavailability is dose-corrected exposure relative to a reference, in per cent. A lower bioavailability goes with little systemic uptake. By solubility is commonly meant the concentration that dissolves in the medium under given conditions. One may read the half-life as the time in which the quantity being followed falls by half. Low values mean rapid decline, high ones slow decline. What is called pKa is the negative logarithm of the acid dissociation constant. A low value points to a group that gives up its proton readily. The term logD denotes the decadic logarithm of the distribution of all forms, ionised or not, between an organic phase and buffer at a given pH. As for `COc1cc2c(Nc3ccc(Br)cc3F)ncnc2cc1OCCn1ccnn1` [ZD-4190 FREE BASE], the IC50 in series [1] was > 100 µM; in series [8] it was > 20 µM; in [11], > 100 µM; in series [12] it was > 10 µM; in series [13], > 20 µM; in series [14] it was > 20 µM. In addition, the IC50 in [15] is > 10 µM. Moreover, the concentration at 24 h in [2] turned out to be 0.2 µM. This compound had a CL/F in series [3] of 8.33 mL/min/kg. Besides, the bioavailability in series [4] is < 5%; in [6] it was > 80%. The concentration at 6 h in [5] amounted to 14 µM. This compound showed a solubility in [7] of 0.7 µM (≈ 0.321 µg/mL). Moreover, the fraction unbound was 0.05 in [9] and 0.02 in series [18]. Also, the half-life in series [10] is 1.3 h; in series [16], 1.1 h. In addition, the pKa in series [17] was 5.3. The logD in [19] was determined as 4.6.
On to `COc1cc2c(Nc3ccc(Cl)cc3F)ncnc2cc1OCCCN1CCOCC1`, for which the IC50 in series [20] came to 2 µM. The concentration at 24 h in [21] came out at 0.8 µM. This compound also registered a solubility in series [22] of 20 µM (≈ 8.94 µg/mL). In series [23], the pKa came to 7.2. For the same compound, the concentration at 6 h in [24] stood at 4 µM. In [19], this compound yielded a logD of 3.4.
As a reminder, the inhibition in vivo is the drop in the measured response relative to a control, in per cent. For `COc1cc2c(Nc3ccc(Br)cc3F)ncnc2cc1OCC1CCN(C)CC1.Cl`, the concentration at 24 h in series [2] stood at 3 µM. Besides, the half-inhibitory concentration (IC50) in [20] is > 3 µM. For the same compound, the bioavailability in series [25] and in series [30] was > 50% in each case. Further, the concentration at 6 h in [5] amounted to 5.5 µM. In [7], this compound had a solubility of 330 µM. In addition, in series [26], the inhibition in vivo at 100 mg/kg was 79%. In addition, the half-life is 15 h in series [10] and 8.3 h in series [29]. This compound also returned an inhibition in vivo at 25 mg/kg in [27] of 51%. In [28], this compound gave an inhibition in vivo at 12.5 mg/kg of 36%. The pKa in [31] stood at 9.4. For the same compound, the inhibition in vivo at 50 mg/kg in series [32] was found to be 67%. In [19], this compound showed a logD of 2.6.
